This note sets out measurements from ChEMBL document CHEMBL5727697, “TYK2 inhibitors and uses thereof” (2020).

Chain of Non-receptor tyrosine-protein kinase TYK2 (P29597 whole entry, the tested form may be a part): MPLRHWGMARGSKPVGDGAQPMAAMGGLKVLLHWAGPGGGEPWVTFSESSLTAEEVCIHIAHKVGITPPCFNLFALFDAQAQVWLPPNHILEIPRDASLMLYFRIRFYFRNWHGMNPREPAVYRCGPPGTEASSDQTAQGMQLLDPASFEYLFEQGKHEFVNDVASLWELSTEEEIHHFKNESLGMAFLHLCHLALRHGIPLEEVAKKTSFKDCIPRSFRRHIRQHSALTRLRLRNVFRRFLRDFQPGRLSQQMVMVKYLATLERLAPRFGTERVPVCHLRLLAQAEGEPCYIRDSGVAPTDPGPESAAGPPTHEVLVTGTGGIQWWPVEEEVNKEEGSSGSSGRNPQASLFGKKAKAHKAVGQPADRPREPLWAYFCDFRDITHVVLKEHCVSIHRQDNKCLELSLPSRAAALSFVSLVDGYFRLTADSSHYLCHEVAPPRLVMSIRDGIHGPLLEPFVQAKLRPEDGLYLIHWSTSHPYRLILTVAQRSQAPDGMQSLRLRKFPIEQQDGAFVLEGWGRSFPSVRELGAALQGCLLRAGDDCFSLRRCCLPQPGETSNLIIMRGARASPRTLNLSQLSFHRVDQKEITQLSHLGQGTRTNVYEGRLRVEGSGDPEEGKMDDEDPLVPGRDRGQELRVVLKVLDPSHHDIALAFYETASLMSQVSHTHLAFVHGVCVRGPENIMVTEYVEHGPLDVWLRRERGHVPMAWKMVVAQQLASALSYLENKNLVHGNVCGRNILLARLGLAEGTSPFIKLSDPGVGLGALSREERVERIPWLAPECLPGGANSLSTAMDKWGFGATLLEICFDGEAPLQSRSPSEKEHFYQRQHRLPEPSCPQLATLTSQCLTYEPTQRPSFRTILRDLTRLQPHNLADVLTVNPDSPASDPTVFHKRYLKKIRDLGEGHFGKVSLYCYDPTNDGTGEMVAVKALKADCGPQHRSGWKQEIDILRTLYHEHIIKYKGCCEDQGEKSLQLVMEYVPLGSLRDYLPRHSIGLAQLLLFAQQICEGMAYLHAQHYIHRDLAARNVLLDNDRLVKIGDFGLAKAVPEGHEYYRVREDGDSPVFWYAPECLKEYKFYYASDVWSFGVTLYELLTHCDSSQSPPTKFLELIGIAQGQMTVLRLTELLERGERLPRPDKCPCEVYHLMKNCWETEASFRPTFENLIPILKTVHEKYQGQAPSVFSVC

The assay has as its target Non-receptor tyrosine-protein kinase TYK2 (Homo sapiens, UniProt P29597). The assay can be described thus: Binding Assay: Binding constants for compounds of the present invention against the JH2 domain were determined by the following protocol for a KINOMEscan® assay (DiscoveRx). A fusion protein of a partial length construct of human TYK2 (JH2domain-pseudokinase) (amino acids G556 to D888 based on reference sequence NP_003322.3) and the DNA binding domain of NFkB was expressed in transiently transfected HEK293 cells. From these HEK 293 cells, extracts were prepared in M-PER extraction buffer (Pierce) in the presence of Protease Inhibitor Cocktail Complete (Roche) and Phosphatase Inhibitor Cocktail Set II (Merck) per manufacturers' instructions. The TYK2 (JH2domain-pseudokinase) fusion protein was labeled with a chimeric double-stranded DNA tag containing the NFkB binding site (5′-GGGAATTCCC-3′) fused to an amplicon for qPCR readout, which was added directly to the expression extract (the final concentration of DNA-tag in the binding reaction is 0.1 nM). In kind it is cell-based.
On to `Cc1nc2c(Nc3ccc(-c4cnn(C)c4C)cc3S(C)(=O)=O)cc(Nc3cccc(C#N)n3)nc2[nH]1`, for which the Kd is < 0.1 nM.

For the compound `COCCNc1ccc(Nc2cc(Nc3ccccc3N(C)S(C)(=O)=O)c3nc(C)[nH]c3n2)nc1C#N`, the Kd was < 0.1 nM.

Turning to `COc1c(Nc2cc(Nc3ccc(C(C)(C)OC)c(C#N)n3)nc3[nH]c(C)nc23)cccc1-c1nnn(C)n1`, the Kd was > 10 nM.

Take `COc1ccccc1Nc1cc(Nc2ccc(N3CCC4(CCOCC4)CC3)cn2)nc2[nH]c(C)nc12`: the dissociation constant (Kd) was > 10 nM.

As for `Cn1cncc1-c1ccc(Nc2cc(NC(=O)[C@@H]3C[C@@H]3F)nc3[nH]c(C(F)F)nc23)c(S(C)(=O)=O)c1`, the Kd was < 0.1 nM.

As to `CN(c1cc(-c2cncn2C)ccc1Nc1cc(NC(=O)[C@@H]2C[C@@H]2F)nc2[nH]c(C(F)F)nc12)S(C)(=O)=O`, the Kd is < 0.1 nM.

`Cc1c(-c2ccc(Nc3cc(NC(=O)C4CC4)nc4[nH]c(C(F)F)nc34)c(S(C)(=O)=O)c2)cnn1C`: the Kd was < 0.1 nM.
